Test results published in publication PMC8840488, “Antidiabetic Activity and In Silico Molecular Docking of Polyphenols from Ammannia baccifera L. subsp. Aegyptiaca (Willd.) Koehne Waste: Structure Elucidation of Undescribed Acylated Flavonol Diglucoside” (Plants, 2022).

How the values were obtained:
pancreatic lipase = target: T1, pancreatic lipase (Homo sapiens, UniProt P16233); experiment: In vitro pancreatic lipase inhibition; format: biochemical; details: for IC50: concentration range 12–100 µg/mL
T1 sequence (P16233 17-465): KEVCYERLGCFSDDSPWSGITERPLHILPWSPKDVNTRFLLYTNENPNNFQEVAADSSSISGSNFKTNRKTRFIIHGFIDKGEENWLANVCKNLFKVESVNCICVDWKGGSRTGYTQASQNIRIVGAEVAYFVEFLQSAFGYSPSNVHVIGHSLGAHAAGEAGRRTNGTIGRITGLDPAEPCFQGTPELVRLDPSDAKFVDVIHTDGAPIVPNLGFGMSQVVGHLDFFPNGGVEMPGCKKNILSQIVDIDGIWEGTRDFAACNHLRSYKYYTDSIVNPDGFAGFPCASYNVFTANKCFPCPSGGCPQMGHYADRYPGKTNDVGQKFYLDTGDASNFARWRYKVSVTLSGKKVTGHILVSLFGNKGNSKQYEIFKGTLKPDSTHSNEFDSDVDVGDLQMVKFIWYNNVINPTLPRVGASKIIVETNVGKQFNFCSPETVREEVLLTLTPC
Method: The determination of the percentage inhibition of pancreatic lipase was calculated as prescribed by Hegazi et al., using the same formula for amylase.

α-amylase = target: T2, α-amylase (Homo sapiens, UniProt P04746); experiment: In vitro α-amylase inhibition; format: biochemical; details: for IC50: concentration range 75–600 µg/mL
T2 construct: purchased Sigma-Aldrich (Merck, Darmstadt, Germany)
T2 sequence (P04746 16-511): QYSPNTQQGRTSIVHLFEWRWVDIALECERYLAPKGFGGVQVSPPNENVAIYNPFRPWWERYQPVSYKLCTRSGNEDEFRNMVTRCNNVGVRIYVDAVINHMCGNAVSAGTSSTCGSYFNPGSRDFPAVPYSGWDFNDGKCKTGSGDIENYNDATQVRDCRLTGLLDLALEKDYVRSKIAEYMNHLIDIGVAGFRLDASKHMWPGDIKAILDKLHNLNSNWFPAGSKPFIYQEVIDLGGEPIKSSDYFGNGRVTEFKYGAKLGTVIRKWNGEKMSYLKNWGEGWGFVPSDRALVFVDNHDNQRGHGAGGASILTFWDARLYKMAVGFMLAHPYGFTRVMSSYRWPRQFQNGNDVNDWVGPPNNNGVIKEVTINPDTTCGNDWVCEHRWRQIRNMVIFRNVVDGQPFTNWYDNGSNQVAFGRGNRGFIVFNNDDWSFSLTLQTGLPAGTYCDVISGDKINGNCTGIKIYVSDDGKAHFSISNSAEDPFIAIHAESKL
Source text: The assay was implemented in accordance with. […] The percentage of inhibition can be estimated using the following Equation: 100−[{A sample/ Acontrol ×100]

β-glucosidase = experiment: In vitro β-glucosidase inhibition; format: biochemical; details: for β-glucosidase IC50: concentration range 75–600 µg/mL
Method: The assay was performed in conformity with and used the same formula for amylase.

DPPH antioxidant assay = experiment: DPPH antioxidant assay
Method: The assay was carried out for AEEE and isolated phenolics according to Brand-Williams et al..

ORAC antioxidant assay = experiment: ORAC antioxidant assay
Source text: The antioxidant assay was applied to AEEE and the isolated phenolics.

Reducing power assay = experiment: Reducing power assay
Method: In the reducing-power assay, the more antioxidant compounds convert the oxidated form of iron (Fe^+3) in ferric chloride to ferrous (Fe^+2), which leads to an increase in colored ferrous-TPTZ complexes.
The assay was carried out on AEEE and the isolated phenolics (DeGraft-Johnson et al., 2007).

SMILES | inhibition at 100 µg/mL (pancreatic lipase) | IC50 (pancreatic lipase) | inhibition at 300 µg/mL (α-amylase) | IC50 (α-amylase) | β-glucosidase % Inhibition (β-glucosidase; at 300 µg/mL) | β-glucosidase IC50 (β-glucosidase) | DPPH IC50 (DPPH antioxidant assay) | ORAC IC50 (ORAC antioxidant assay) | Ferrous reducing assay IC50 (Reducing power assay) | Reducing power (Reducing power assay; compared with quercetin as standard) | β-glucosidase % Inhibition (β-glucosidase; at 600 µg/mL)
C[C@@H]1O[C@@H](OC[C@H]2O[C@@H](Oc3c(-c4ccc(O)c(O)c4)oc4cc(O)cc(O)c4c3=O)[C@H](O)[C@@H](O)[C@@H]2O)[C@H](O)[C@H](O)[C@H]1O [Compound 3, quercetin 3-O-rutinoside] | 82.2 ± 2.53% | 66.2 µM | 72.1 ± 3.49% | 366 µM | 66 ± 3.47 % | 104 ± 3.80 µg/mL | 8.81 ± 1.05 µg/mL | 8.02 ± 0.85 µg/mL |  |  | 
C[C@@H]1O[C@@H](OC[C@H]2O[C@@H](Oc3c(-c4ccc(O)cc4)oc4cc(O)cc(O)c4c3=O)[C@H](O)[C@@H](O)[C@@H]2O)[C@H](O)[C@H](O)[C@H]1O [Compound 2, kaempfeol 3-O-rutinoside] | 35.8 ± 3.84% | 228 µM | 80.4 ± 3.81% | 348 µM |  |  | > 100 ± 13.67 µg/mL | > 100 ± 10.17 µg/mL |  |  | 
O=C(OC[C@H]1O[C@@H](Oc2c(-c3cc(O)c(O)c(O)c3)oc3cc(O[C@@H]4O[C@H](CO)[C@@H](O)[C@H](O)[C@H]4O)cc(O)c3c2=O)[C@H](O)[C@@H](O)[C@@H]1O)c1cc(O)c(O)c(O)c1 [Compound 1, myricetin 3-O-β-^4C1-(6′′-O-galloyl glucopyranoside)-7-O-β-^4C1-glucopyranoside] | 87 ± 2.38% | 40.3 µM | 91.4 ± 2.45% | 198 µM | 92.70 ± 1.42 % | 72.77 ± 2.67 µg/mL | 2.37 ± 0.56 µg/mL | 2.01 ± 0.23 µg/mL | 158.13 ± 2.82 µg/mL | comparable to that of standard quercetin | 
O=C(O[C@H]1[C@H](O)[C@@H](CO)OC(O)[C@@H]1OC(=O)c1cc(O)c(O)c(O)c1)c1cc(O)c(O)c(O)c1 (stereo partly drawn) [Compound 5, 2,3-α, β-digalloy glucose] | 18.7 ± 3.1% | 549 µM | 78 ± 1.15% | 448 µM | 68.43 ± 2.30 % | 100.23 ± 3.80 µg/mL | 4.81 ± 0.73 µg/mL | 4.43 ± 0.68 µg/mL |  |  | 
O=C(O[C@@H]1[C@@H](OC(=O)c2cc(O)c(O)c(O)c2)[C@H](O)O[C@@H]2COC(=O)c3cc(O)c(O)c(O)c3-c3c(cc(O)c(O)c3O)C(=O)O[C@@H]12)c1cc(O)c(O)c(O)c1 [Compound 4, tellimagranidine-I] | 19.5 ± 4.36% | 343 µM | 78.9 ± 4.13% | 276 µM | 58.44 ± 3.61 % | 115.21 ± 4.90 µg/mL | 4.64 ± 0.39 µg/mL | 4.14 ± 1.27 µg/mL |  |  | 
CCCCCCCCCCC[C@@H](C[C@@H]1OC(=O)[C@H]1CCCCCC)OC(=O)[C@H](CC(C)C)NC=O [Orlistat, reference compound] | 57 ± 4.5% |  |  |  |  |  |  |  |  |  | 
Cc1c(C)c2c(c(C)c1O)CCC(C)(C(=O)O)O2 (stereo not drawn) [Trolox, reference compound] |  |  |  |  |  |  |  | 28.0 ± 14.31 µg/mL |  |  | 
O=C1O[C@H]([C@@H](O)CO)C(O)=C1O [Vitamin C, reference compound] |  |  |  |  |  |  | 1.83 ± 1.41 µg/mL |  |  |  | 
C[C@H]1O[C@H](O[C@H]2[C@H](O)[C@@H](O)[C@@H](O[C@H]3[C@H](O)[C@@H](O)C(O)O[C@@H]3CO)O[C@@H]2CO)[C@H](O)[C@@H](O)[C@@H]1N[C@H]1C=C(CO)[C@@H](O)[C@H](O)[C@H]1O (stereo partly drawn) [Acarbose, reference compound] |  |  |  |  |  | 110.6 ± 3.20 µg/mL |  |  |  |  | 95.2 ± 2.30%
